Experiment [1] concerns the target T1, human MER (528-end) (Homo sapiens, UniProt Q12866).
T1 construct: human MER (528-end); purchased Carnabio, Japan
T1 sequence (Q12866 528-999 limits assumed): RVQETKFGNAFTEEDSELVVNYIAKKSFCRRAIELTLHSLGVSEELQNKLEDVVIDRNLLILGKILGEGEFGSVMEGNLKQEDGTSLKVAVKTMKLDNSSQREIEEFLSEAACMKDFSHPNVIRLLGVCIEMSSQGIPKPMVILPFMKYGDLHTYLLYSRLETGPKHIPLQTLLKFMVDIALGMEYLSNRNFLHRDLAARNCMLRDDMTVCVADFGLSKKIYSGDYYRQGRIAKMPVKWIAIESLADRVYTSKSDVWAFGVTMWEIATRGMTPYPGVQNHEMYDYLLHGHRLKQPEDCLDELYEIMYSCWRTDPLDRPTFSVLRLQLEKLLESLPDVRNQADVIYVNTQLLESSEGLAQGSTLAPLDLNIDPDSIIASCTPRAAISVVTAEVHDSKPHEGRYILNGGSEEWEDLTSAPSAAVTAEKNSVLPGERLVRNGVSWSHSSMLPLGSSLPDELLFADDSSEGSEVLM
As to the kind of experiment: HTRF kinase activity biochemical assay, MER.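 Further: phosphorylation of a biotin-tagged tyrosine kinase substrate detected by Eu3+-cryptate antibody and streptavidin-XL665 time-resolved fluorescence, read after 1 h at room temperature.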 The note with it: recombinant kinase, 10 uM ATP, 30 minutes pre-incubation; read-out: HTRF MERTK IC50. Background: TR-FRET usually uses a lanthanide donor and a delayed reading to cut background.

The target in experiment [2] is T2, human AXL (473-end) (Homo sapiens, UniProt P30530).
T2 construct: human AXL (473-end); purchased SignalChem, Canada
T2 sequence (P30530 473-894 limits assumed): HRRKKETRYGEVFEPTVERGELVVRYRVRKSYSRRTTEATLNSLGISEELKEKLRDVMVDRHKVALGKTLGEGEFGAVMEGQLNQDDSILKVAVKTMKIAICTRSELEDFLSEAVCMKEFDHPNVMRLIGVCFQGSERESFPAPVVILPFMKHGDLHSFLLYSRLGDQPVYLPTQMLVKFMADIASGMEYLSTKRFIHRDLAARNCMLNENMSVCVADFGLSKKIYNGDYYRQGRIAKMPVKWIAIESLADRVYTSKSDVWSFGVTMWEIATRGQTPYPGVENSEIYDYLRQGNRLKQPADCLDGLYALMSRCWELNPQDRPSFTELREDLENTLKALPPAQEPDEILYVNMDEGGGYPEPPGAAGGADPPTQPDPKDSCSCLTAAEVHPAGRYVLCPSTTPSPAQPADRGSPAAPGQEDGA
As to the kind of experiment: HTRF kinase activity biochemical assay, AXL.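 Further: phosphorylation of a biotinylated tyrosine kinase substrate detected via Eu3+-cryptate anti-TK antibody and streptavidin-XL665, fluorescence read after a 1 h incubation at room temperature.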 Particulars: recombinant kinase, 10 uM ATP, 30 minutes pre-incubation; read-out: HTRF AXL IC50.

Experiment [3] concerns the target T3, TYRO3 (455-end) (Homo sapiens, UniProt Q06418).
T3 construct: TYRO3 (455-end); purchased SignalChem, Canada
T3 sequence (Q06418 455-890 limits assumed): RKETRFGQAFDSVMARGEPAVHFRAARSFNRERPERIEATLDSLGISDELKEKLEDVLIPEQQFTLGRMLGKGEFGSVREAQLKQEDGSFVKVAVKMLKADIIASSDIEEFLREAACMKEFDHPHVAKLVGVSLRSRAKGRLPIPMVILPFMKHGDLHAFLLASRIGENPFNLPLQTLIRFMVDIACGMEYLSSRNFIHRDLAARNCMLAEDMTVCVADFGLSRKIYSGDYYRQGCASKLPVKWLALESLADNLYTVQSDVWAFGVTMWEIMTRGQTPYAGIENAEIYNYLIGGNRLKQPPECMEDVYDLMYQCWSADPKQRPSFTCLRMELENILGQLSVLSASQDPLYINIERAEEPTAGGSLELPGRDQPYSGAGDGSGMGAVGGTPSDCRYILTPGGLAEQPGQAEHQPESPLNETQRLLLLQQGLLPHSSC
As to the kind of experiment: HTRF kinase activity biochemical assay, TYRO3.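 Further: biotinylated tyrosine kinase substrate phosphorylation detected via streptavidin-XL665 and Eu3+-cryptate anti-phospho antibody time-resolved fluorescence, read after 1 h detection at room temperature, 384-well format.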 Particulars: recombinant kinase, 10 uM ATP, 30 minutes pre-incubation; read-out: HTRF TYRO IC50.

A value given as a limit tells only on which side of the number the result lay.

As a reminder, the IC50 is the point on the concentration scale where inhibition reaches its midpoint.

Consider `Cn1cc(Nc2ncc(C3CN(c4nc5ccc(OCC#N)cc5o4)C3)nc2C(N)=O)cn1` [Example 24, 6-{1-[6-(cyanomethoxy)-1,3-benzoxazol-2-yl]azetidin-3-yl}-3-[(1-methyl-1H-pyrazol-4-yl)amino]pyrazine-2-carboxamide], for which the results for the IC50 in experiment [1], in experiment [2] and in experiment [3] were 2 nM, 3 nM and 130 nM, respectively.

Take `CC(C)(O)CCOc1ccc2nc(N3CC(c4cnc(Nc5cnn(COCC[Si](C)(C)C)c5)c(C(N)=O)n4)C3)oc2c1` [Example 96A, 6-{1-[6-(3-hydroxy-3-methylbutoxy)-1,3-benzoxazol-2-yl]azetidin-3-yl}-3-[(1-{[2-(trimethylsilyl)ethoxy]methyl}-1H-pyrazol-4-yl)amino]pyrazine-2-carboxamide]: the figures for the 50% inhibitory concentration (IC50) in experiment [1], in experiment [2] and in experiment [3] were 11 nM, 31 nM and 1390 nM, respectively.

As for `COCCn1cc(Nc2ncc(C3CN(c4nc5ccccc5o4)C3)nc2C(N)=O)cn1` [Example 29, 6-[1-(1,3-benzoxazol-2-yl)azetidin-3-yl]-3-{[1-(2-methoxyethyl)-1H-pyrazol-4-yl]amino}pyrazine-2-carboxamide], the IC50 was 5 nM in experiment [1], 10 nM in experiment [2] and 340 nM in experiment [3].

In the case of `CC(C)(O)CCOc1ccc2nc(N3CC(c4cnc(Nc5cn[nH]c5)c(C(N)=O)n4)C3)oc2c1` [Example 96B, 6-{1-[6-(3-hydroxy-3-methylbutoxy)-1,3-benzoxazol-2-yl]azetidin-3-yl}-3-[(1H-pyrazol-4-yl)amino]pyrazine-2-carboxamide], the half-maximal inhibitory concentration (IC50) came to 2 nM in experiment [1], 7 nM in experiment [2] and 670 nM in experiment [3].

As for `CC(C)(O)CCOc1ccc2nc(N3CC(c4cnc(Nc5cnn(C(C)(C)C)c5)c(C(N)=O)n4)C3)oc2c1` [Example 94, 3-[(1-tert-butyl-1H-pyrazol-4-yl)amino]-6-{1-[6-(3-hydroxy-3-methylbutoxy)-1,3-benzoxazol-2-yl]azetidin-3-yl}pyrazine-2-carboxamide], the concentration for half-maximal inhibition (IC50) in experiment [1] was below 1 nM; in experiment [2], 3 nM; in experiment [3], 910 nM.

With `CN(C)C(=O)Cn1cc(Nc2ncc(C3CN(c4nc5ccccc5o4)C3)nc2C(N)=O)cn1` [Example 34, 6-[1-(1,3-benzoxazol-2-yl)azetidin-3-yl]-3-({1-[2-(dimethylamino)-2-oxoethyl]-1H-pyrazol-4-yl}amino)pyrazine-2-carboxamide], the IC50 in experiment [1] amounted to 8 nM; in experiment [2], 19 nM; in experiment [3], 620 nM.

In the case of `Cn1cc(Nc2ncc(C3CN(c4nc5ccc(-c6cnn(C)c6)cc5o4)C3)nc2C(N)=O)cn1` [Example 92, 3-[(1-methyl-1H-pyrazol-4-yl)amino]-6-{1-[6-(1-methyl-1H-pyrazol-4-yl)-1,3-benzoxazol-2-yl]azetidin-3-yl}pyrazine-2-carboxamide], the IC50 in experiment [1] is below 1 nM; in experiment [2], 3 nM; in experiment [3], 80 nM.

On to `CO[C@H]1CCN(C(=O)Cc2ccc3nc(N4CC(c5cnc(Nc6cnn(C)c6)c(C(N)=O)n5)C4)oc3c2)C1` [Example 70, 6-[1-(6-{2-[(3S)-3-methoxypyrrolidin-1-yl]-2-oxoethyl}-1,3-benzoxazol-2-yl)azetidin-3-yl]-3-[(1-methyl-1H-pyrazol-4-yl)amino]pyrazine-2-carboxamide], for which the IC50 is 3 nM in experiment [1], 20 nM in experiment [2] and above 12500 nM in experiment [3].

Regarding `Cn1cc(Nc2ccc(C3CN(c4nc5ccc(OCCC(C)(C)O)cc5o4)C3)nc2C(N)=O)cn1` [Example 84, 6-{1-[6-(3-hydroxy-3-methylbutoxy)-1,3-benzoxazol-2-yl]azetidin-3-yl}-3-[(1-methyl-1H-pyrazol-4-yl)amino]pyridine-2-carboxamide], the values for the half-maximal inhibitory concentration (IC50) in experiment [1], in experiment [2] and in experiment [3] were 2 nM, 7 nM and 1370 nM, respectively.

`Cn1cc(Nc2ccc(C3CN(c4nc5ccc(O)cc5o4)C3)nc2C(N)=O)cn1` [Example 84A, 6-[1-(6-hydroxy-1,3-benzoxazol-2-yl)azetidin-3-yl]-3-[(1-methyl-1H-pyrazol-4-yl)amino]pyridine-2-carboxamide]: the values for the half-maximal inhibitory concentration (IC50) in experiment [1], in experiment [2] and in experiment [3] were 14 nM, 33 nM and 2070 nM, respectively.

For `Cn1cc(Nc2ncc(C3CN(c4nc5ccc(C(=O)N6CCC[C@@H]6CO)cc5o4)C3)nc2C(N)=O)cn1` [Example 59, 6-(1-{6-[(2R)-2-(hydroxymethyl)pyrrolidine-1-carbonyl]-1,3-benzoxazol-2-yl}azetidin-3-yl)-3-[(1-methyl-1H-pyrazol-4-yl)amino]pyrazine-2-carboxamide], the IC50 was below 1 nM in experiment [1], 2 nM in experiment [2] and 30 nM in experiment [3].

Take `COC(=O)c1ccc2nc(N3CC(c4cnc(Nc5cnn(C)c5)c(C(N)=O)n4)C3)oc2c1` [Example 13, methyl 2-(3-{6-carbamoyl-5-[(1-methyl-1H-pyrazol-4-yl)amino]pyrazin-2-yl}azetidin-1-yl)-1,3-benzoxazole-6-carboxylate]: the IC50 in experiment [1] came out at 2 nM; in experiment [2], 3 nM; in experiment [3], 120 nM.

As to `Cn1cc(Nc2ccc(C3CN(c4nc5ccc(OCCC(C)(C)OC(=O)CN)cc5o4)C3)nc2C(N)=O)cn1` [Example 110, 4-{[2-(3-{6-carbamoyl-5-[(1-methyl-1H-pyrazol-4-yl)amino]pyridin-2-yl}azetidin-1-yl)-1,3-benzoxazol-6-yl]oxy}-2-methylbutan-2-yl glycinate], the IC50 in experiment [1] is below 1 nM; in experiment [2], 1.8 nM; in experiment [3], 280 nM.

Take `COCCn1cc(-c2ccc3nc(N4CC(c5cnc(Nc6cnn(C)c6)c(C(N)=O)n5)C4)oc3c2)cn1` [Example 91, 6-(1-{6-[1-(2-methoxyethyl)-1H-pyrazol-4-yl]-1,3-benzoxazol-2-yl}azetidin-3-yl)-3-[(1-methyl-1H-pyrazol-4-yl)amino]pyrazine-2-carboxamide]: the half-inhibitory concentration (IC50) was 2 nM in experiment [1], 4 nM in experiment [2] and 1430 nM in experiment [3].

Consider `COC[C@H]1CCCN1C(=O)Cc1ccc2nc(N3CC(c4cnc(Nc5cnn(C)c5)c(C(N)=O)n4)C3)oc2c1` [Example 71, 6-[1-(6-{2-[(2R)-2-(methoxymethyl)pyrrolidin-1-yl]-2-oxoethyl}-1,3-benzoxazol-2-yl)azetidin-3-yl]-3-[(1-methyl-1H-pyrazol-4-yl)amino]pyrazine-2-carboxamide], for which the concentration for half-maximal inhibition (IC50) came to 2 nM in experiment [1], 4 nM in experiment [2] and 3730 nM in experiment [3].

For the compound `COC/C=C/c1ccc2nc(N3CC(c4cnc(Nc5cnn(C)c5)c(C(N)=O)n4)C3)oc2c1` [Example 22, 6-(1-{6-[(1E)-3-methoxyprop-1-en-1-yl]-1,3-benzoxazol-2-yl}azetidin-3-yl)-3-[(1-methyl-1H-pyrazol-4-yl)amino]pyrazine-2-carboxamide], the concentration for half-maximal inhibition (IC50) in experiment [1] was below 1 nM; in experiment [2], below 1 nM; in experiment [3] it was 90 nM.

As to `CN(C)C(=O)CCc1ccc2nc(N3CC(c4cnc(Nc5cnn(C)c5)c(C(N)=O)n4)C3)oc2c1` [Example 62, 6-(1-{6-[3-(dimethylamino)-3-oxopropyl]-1,3-benzoxazol-2-yl}azetidin-3-yl)-3-[(1-methyl-1H-pyrazol-4-yl)amino]pyrazine-2-carboxamide], the IC50 came to 3 nM in experiment [1], 6 nM in experiment [2] and 1750 nM in experiment [3].

`Cc1ncc(-c2ccc3nc(N4CC(c5cnc(Nc6cnn(C)c6)c(C(N)=O)n5)C4)oc3c2)s1` [Example 99, 3-[(1-methyl-1H-pyrazol-4-yl)amino]-6-{1-[6-(2-methyl-1,3-thiazol-5-yl)-1,3-benzoxazol-2-yl]azetidin-3-yl}pyrazine-2-carboxamide]: the half-maximal inhibitory concentration (IC50) in experiment [1] is below 1 nM; in experiment [2] it was 1.6 nM; in experiment [3], 24 nM.

For the origin of these results see patent US20260232658A1, “AZETIDINYL BENZOXAZOLE COMPOUNDS AND THEIR USE AS MER AND AXL INHIBITORS” (DONG-A ST CO., LTD., priority 2022, published 2026).
